Experiments:
[1] = molecular target: T1, Aβ(25-35) (Homo sapiens, UniProt P05067); test: Screening assay for inhibition of Aβ(25-35) aggregation (Thioflavin-T fluorescence); assay type: biochemical; settings: molecule at purity above 90%; ThT fluorescence, 25° C., 0-120 minutes; read-out: IC50 for inhibiting aggregation of Aβ25-35
T1 construct: Monomeric Aβ(25-35) purchased from Bachem Pharma; purchased Bachem Pharma
Protocol: Monomeric Aβ(25-35) purchased from Bachem Pharma, was dissolved in distilled sterile water at 4° C., then sonitcated for about 1 minute. The peptide stock solution was then aliquoted and stored at −20° C. All steps were carried out at 4° C. to prevent Aβ(25-35) polymerization.
Fractions of polyphenols were all standardized to 10 μg/mL, before being assessed and stored at −20° C. Measurement of inhibition was performed by following the kinetic of Aβ(25-35) polymerization in a reaction mixture containing 70 μL phosphate buffer, 10 μL Thioflavin-T (100 μM stock solution), 10 μL MeOH (10 mM final concentration) pH 7.2 and 10 μL of Aβ(25-35) (100 μM final concentration) adapting known in the art procedures. LeVine, H., 3rd (1993). “Thioflavine T interaction with synthetic Alzheimer's disease beta-amyloid peptides: detection of amyloid aggregation in solution.” Protein Sci. 2(3): 404-10. When Aβ(25-35) was added to the buffer solution, the solution was sonicated for an additional minute.
To study the inhibitory activity of the fractions, the extracts were diluted to the final concentration in MeOH and 10 μL was added to the mixture at 4° C. Fluorescence spectroscopy was recorded with the excitation at 450 nm and emission at 490 nm. The polymerization kinetics was monitored at 25° C. between 0 and 120 minutes. The IC50 was calculated by using a least-square fitting technique to match the experimental data with a sigmoidal curve. The IC50 was the effective concentration dose of the compound inhibiting the formation of Aβ fibrils to 50% of the control value.

[2] = system: PC12 cells; test: Inhibition of Aβ-oligomer induced neuronal cell death in PC12 cells (MTT); assay type: cell-based, Rat; settings: pre-aggregated Aβ (25-35) 10 μM, 24 h; MTT cell viability
Protocol: The fractions that were able to inhibits oligomer formation were also tested for their ability to inhibit Aβ-oligomer induced neuronal cell death using […], a well known and accepted model of neuronal cell culture.
Beta Amyloid peptide (Aβ) 25-35 trifluoroacetate salt (ref H-1192, lot 2000718) was purchased from Bachem (Bubebdorf, Switzerland). Thiazolyl Blue Tetrazolium Bromide (MTT, ref. M2128) was purchased from Sigma-Aldrich (Saint-Quentin Fallvier, France). Albumin Bovine Fraction V (BSA, ref 160069) was purchased from MPBio (Irvine, USA).
Cells: Rat Pheochromocytoma cells (PC12) were maintained in DMEM (4.5 g/L glucose) supplemented with 10% Horse Serum (HS), 5% Fetal Bovine Serum (FCS) and 100 U/mL penicillin and 100 μg/mL Streptomycin at 37° C. under 5% CO2.
Preparation of Aβ (25-35): It has been reported that Aβ oligomers are more toxic to neurons than monomers. […]
Determination of Hydro-Alcoholic Pomegranate Extracts Ability to Protect PC12 Cells Against Aβ Insult: The ability of Pomegranate extracts to protect PC12 cells from Aβ (25-35) oligomer induced toxicity was determined by measuring reduction of MTT to MTT formazan, which reflects cell viability. […] The level of MTT reduction and thus cell viability was determined by a colorimetric assay measuring the optical density at 595 nm using a microplate reader (BioTek EL808).

Compound	IC50 [1] [µM]	protection of PC12 neuronal cells from the toxicity of Aβ (25-35) oligomers [2]
O=C1OC[C@H]2OC(O)[C@H](O)[C@@H](O)[C@@H]2OC(=O)c2cc(O)c(O)c(O)c2-c2c(O)c(O)c3oc(=O)c4c(c(O)c(O)c5oc(=O)c2c3c54)-c2c1cc(O)c(O)c2O (mixture of isomers) [Punicalin]	10	
O=C1O[C@H]2[C@@H]3OC(=O)c4cc(O)c(O)c(O)c4-c4c(O)c(O)c5oc(=O)c6c(c(O)c(O)c7oc(=O)c4c5c76)-c4c(cc(O)c(O)c4O)C(=O)OC[C@H]3OC(O)[C@@H]2OC(=O)c2cc(O)c(O)c(O)c2-c2c1cc(O)c(O)c2O (mixture of isomers) [Punicalagin]	6	responsible for the observed activity
O=C1OC[C@H]2OC(O)[C@@H]3OC(=O)c4cc(O)c(O)c(O)c4-c4c(cc(O)c(O)c4O)C(=O)O[C@H]3[C@@H]2OC(=O)c2cc(O)c(O)c(O)c2-c2c1cc(O)c(O)c2O (stereo partly drawn) [Pedunculagin]	11	
Tellimagrandin	6.8	
O=C(O[C@@H]1O[C@@H]2COC(=O)c3cc(O)c(O)c(O)c3-c3c(cc(O)c(O)c3O)C(=O)O[C@H]([C@H]1O)[C@@H]2O)c1cc(O)c(O)c(O)c1 [Corilagin]	65	
